Converted amounts (≈) assume the structure as drawn. Where two headings read alike, the source gives them in different places.
Test system: non-gonococcal Neisseria
Assay: MIC determination for non-gonococcal Neisseria, agar dilution
Assay type: cell-based, Neisseria species
Details: read-out: Minimum inhibitory concentration
Source text: The 2024 WHO N. gonorrhoeae reference strains were used for quality control. Only whole MIC doubling dilutions are reported. Clinical breakpoints or the epidemiological cutoff (ECOFF, to indicate azithromycin resistance) from EUCAST (v14.0, https://www.eucast.org/clinical_breakpoints) were used to classify isolates as antimicrobial susceptible or resistant. […] Two times the standard inoculum defined by CLSI was used to establish consistent growth in untreated control samples for some strains. In vitro time-kill assays were performed according to CLSI guidelines[65] using Columbia Broth (BD Difco) supplemented with 1% IsoVitaleX Enrichment (BD). Viable bacterial counts were generated by plating 10-fold serially diluted samples on GC agar plates containing 1% IsoVitaleX Enrichment (BD).

Cc1c(CN(C)C(=O)/C=C/c2cnc3c(c2)N[C@H](C)[C@H](O)C(=O)N3)oc2ccccc12 [Debio 1453] was tested, and the MIC (Neisseria lactamica 1, Replicate 3) was 0.032 µg/mL (≈ 0.0761 µM), the MIC (Neisseria lactamica 2, Consensus) was 0.064 µg/mL (≈ 0.152 µM) and the MIC (Neisseria lactamica 2, Replicate 1) was 0.064 µg/mL (≈ 0.152 µM). For the same molecule, the MIC (Neisseria lactamica 2, Replicate 2) was 0.064 µg/mL (≈ 0.152 µM), the MIC (Neisseria lactamica 2, Replicate 3) was 0.064 µg/mL (≈ 0.152 µM) and the MIC (Neisseria lactamica 3, Consensus) was 0.016 µg/mL (≈ 0.0381 µM). It also gave an MIC (Neisseria lactamica 3, Replicate 1) of 0.016 µg/mL (≈ 0.0381 µM), an MIC (Neisseria lactamica 3, Replicate 2) of 0.016 µg/mL (≈ 0.0381 µM) and an MIC (Neisseria lactamica 3, Replicate 3) of 0.016 µg/mL (≈ 0.0381 µM). The MIC (Neisseria lactamica 4, Consensus) was 0.064 µg/mL (≈ 0.152 µM), the MIC (Neisseria lactamica 4, Replicate 1) was 0.064 µg/mL (≈ 0.152 µM) and the MIC (Neisseria lactamica 4, Replicate 2) was 0.064 µg/mL (≈ 0.152 µM). For the same molecule, the MIC (Neisseria lactamica 4, Replicate 3) was 0.064 µg/mL (≈ 0.152 µM), the MIC (Neisseria lactamica 5, Consensus) was 0.016 µg/mL (≈ 0.0381 µM) and the MIC (Neisseria lactamica 5, Replicate 1) was 0.032 µg/mL (≈ 0.0761 µM). For the same molecule, the MIC (Neisseria lactamica 5, Replicate 2) was 0.016 µg/mL (≈ 0.0381 µM), the MIC (Neisseria lactamica 5, Replicate 3) was 0.016 µg/mL (≈ 0.0381 µM) and the MIC (Neisseria lactamica 6, Consensus) was 0.032 µg/mL (≈ 0.0761 µM). For the same molecule, the MIC (Neisseria lactamica 6, Replicate 1) was 0.032 µg/mL (≈ 0.0761 µM), the MIC (Neisseria lactamica 6, Replicate 2) was 0.032 µg/mL (≈ 0.0761 µM) and the MIC (Neisseria lactamica 6, Replicate 3) was 0.032 µg/mL (≈ 0.0761 µM). For the same molecule, the MIC (Neisseria lactamica 7, Consensus) was 0.032 µg/mL (≈ 0.0761 µM), the MIC (Neisseria lactamica 7, Replicate 1) was 0.032 µg/mL (≈ 0.0761 µM) and the MIC (Neisseria lactamica 7, Replicate 2) was 0.032 µg/mL (≈ 0.0761 µM). For the same molecule, the MIC (Neisseria lactamica 7, Replicate 3) was 0.064 µg/mL (≈ 0.152 µM), the MIC (Neisseria lactamica 8, Consensus) was 0.032 µg/mL (≈ 0.0761 µM) and the MIC (Neisseria lactamica 8, Replicate 1) was 0.032 µg/mL (≈ 0.0761 µM). It also gave an MIC (Neisseria lactamica 8, Replicate 2) of 0.032 µg/mL (≈ 0.0761 µM), an MIC (Neisseria lactamica 8, Replicate 3) of 0.064 µg/mL (≈ 0.152 µM) and an MIC (Neisseria lactamica 9, Consensus) of 0.064 µg/mL (≈ 0.152 µM). It also gave an MIC (Neisseria lactamica 9, Replicate 1) of 0.064 µg/mL (≈ 0.152 µM), an MIC (Neisseria lactamica 9, Replicate 2) of 0.032 µg/mL (≈ 0.0761 µM) and an MIC (Neisseria lactamica 9, Replicate 3) of 0.064 µg/mL (≈ 0.152 µM). For the same molecule, the MIC (Neisseria lactamica 10, Consensus) was 0.032 µg/mL (≈ 0.0761 µM), the MIC (Neisseria lactamica 10, Replicate 1) was 0.032 µg/mL (≈ 0.0761 µM) and the MIC (Neisseria lactamica 10, Replicate 2) was 0.016 µg/mL (≈ 0.0381 µM). For the same molecule, the MIC (Neisseria lactamica 10, Replicate 3) was 0.032 µg/mL (≈ 0.0761 µM), the MIC (Neisseria lactamica 11, Consensus) was 0.032 µg/mL (≈ 0.0761 µM) and the MIC (Neisseria lactamica 11, Replicate 1) was 0.032 µg/mL (≈ 0.0761 µM). It also gave an MIC (Neisseria lactamica 11, Replicate 2) of 0.032 µg/mL (≈ 0.0761 µM), an MIC (Neisseria lactamica 11, Replicate 3) of 0.032 µg/mL (≈ 0.0761 µM) and an MIC (Neisseria macacae 1, Consensus) of 2 µg/mL (≈ 4.76 µM). It also gave an MIC (Neisseria macacae 1, Replicate 1) of 1 µg/mL (≈ 2.38 µM), an MIC (Neisseria macacae 1, Replicate 2) of 2 µg/mL (≈ 4.76 µM) and an MIC (Neisseria macacae 1, Replicate 3) of 2 µg/mL (≈ 4.76 µM). It also gave an MIC (Neisseria macacae 2, Consensus) of 2 µg/mL (≈ 4.76 µM), an MIC (Neisseria macacae 2, Replicate 1) of 2 µg/mL (≈ 4.76 µM) and an MIC (Neisseria macacae 2, Replicate 2) of 2 µg/mL (≈ 4.76 µM). It also gave an MIC (Neisseria macacae 2, Replicate 3) of 2 µg/mL (≈ 4.76 µM), an MIC (Neisseria macacae 3, Consensus) of 0.25 µg/mL (≈ 0.595 µM) and an MIC (Neisseria macacae 3, Replicate 1) of 0.25 µg/mL (≈ 0.595 µM). For the same molecule, the MIC (Neisseria macacae 3, Replicate 2) was 0.25 µg/mL (≈ 0.595 µM), the MIC (Neisseria macacae 3, Replicate 3) was 0.5 µg/mL (≈ 1.19 µM) and the MIC (Neisseria macacae 4, Consensus) was 2 µg/mL (≈ 4.76 µM). For the same molecule, the MIC (Neisseria macacae 4, Replicate 1) was 1 µg/mL (≈ 2.38 µM), the MIC (Neisseria macacae 4, Replicate 2) was 2 µg/mL (≈ 4.76 µM) and the MIC (Neisseria macacae 4, Replicate 3) was 2 µg/mL (≈ 4.76 µM). The MIC (Neisseria macacae 5, Consensus) was 2 µg/mL (≈ 4.76 µM), the MIC (Neisseria macacae 5, Replicate 1) was 2 µg/mL (≈ 4.76 µM) and the MIC (Neisseria macacae 5, Replicate 2) was 2 µg/mL (≈ 4.76 µM). The MIC (Neisseria macacae 5, Replicate 3) was 2 µg/mL (≈ 4.76 µM), the MIC (Neisseria macacae 6, Consensus) was 0.5 µg/mL (≈ 1.19 µM) and the MIC (Neisseria macacae 6, Replicate 1) was 0.25 µg/mL (≈ 0.595 µM). The MIC (Neisseria macacae 6, Replicate 2) was 0.5 µg/mL (≈ 1.19 µM), the MIC (Neisseria macacae 6, Replicate 3) was 0.5 µg/mL (≈ 1.19 µM) and the MIC (Neisseria macacae 7, Consensus) was 0.5 µg/mL (≈ 1.19 µM). It also gave an MIC (Neisseria macacae 7, Replicate 1) of 0.25 µg/mL (≈ 0.595 µM), an MIC (Neisseria macacae 7, Replicate 2) of 0.5 µg/mL (≈ 1.19 µM) and an MIC (Neisseria macacae 7, Replicate 3) of 0.5 µg/mL (≈ 1.19 µM). For the same molecule, the MIC (Neisseria meningitidis gr 29E, Consensus) was 0.064 µg/mL (≈ 0.152 µM), the MIC (Neisseria meningitidis gr 29E, Replicate 1) was 0.064 µg/mL (≈ 0.152 µM) and the MIC (Neisseria meningitidis gr 29E, Replicate 2) was 0.032 µg/mL (≈ 0.0761 µM). For the same molecule, the MIC (Neisseria meningitidis gr 29E, Replicate 3) was 0.064 µg/mL (≈ 0.152 µM), the MIC (Neisseria meningitidis gr A, Consensus) was 0.032 µg/mL (≈ 0.0761 µM) and the MIC (Neisseria meningitidis gr A, Replicate 1) was 0.032 µg/mL (≈ 0.0761 µM). It also gave an MIC (Neisseria meningitidis gr A, Replicate 2) of 0.032 µg/mL (≈ 0.0761 µM), an MIC (Neisseria meningitidis gr A, Replicate 3) of 0.032 µg/mL (≈ 0.0761 µM) and an MIC (Neisseria meningitidis gr B, Consensus) of 0.016 µg/mL (≈ 0.0381 µM). It also gave an MIC (Neisseria meningitidis gr B, Replicate 1) of 0.016 µg/mL (≈ 0.0381 µM), an MIC (Neisseria meningitidis gr B, Replicate 2) of 0.016 µg/mL (≈ 0.0381 µM) and an MIC (Neisseria meningitidis gr B, Replicate 3) of 0.016 µg/mL (≈ 0.0381 µM). For the same molecule, the MIC (Neisseria meningitidis gr C, Consensus) was 0.032 µg/mL (≈ 0.0761 µM), the MIC (Neisseria meningitidis gr C, Replicate 1) was 0.032 µg/mL (≈ 0.0761 µM) and the MIC (Neisseria meningitidis gr C, Replicate 2) was 0.032 µg/mL (≈ 0.0761 µM). For the same molecule, the MIC (Neisseria meningitidis gr C, Replicate 3) was 0.032 µg/mL (≈ 0.0761 µM), the MIC (Neisseria meningitidis gr W, Consensus) was 0.008 µg/mL (≈ 0.019 µM) and the MIC (Neisseria meningitidis gr W, Replicate 1) was 0.008 µg/mL (≈ 0.019 µM). For the same molecule, the MIC (Neisseria meningitidis gr W, Replicate 2) was 0.008 µg/mL (≈ 0.019 µM), the MIC (Neisseria meningitidis gr W, Replicate 3) was 0.008 µg/mL (≈ 0.019 µM) and the MIC (Neisseria meningitidis gr X, Consensus) was 0.016 µg/mL (≈ 0.0381 µM). For the same molecule, the MIC (Neisseria meningitidis gr X, Replicate 1) was 0.016 µg/mL (≈ 0.0381 µM), the MIC (Neisseria meningitidis gr X, Replicate 2) was 0.016 µg/mL (≈ 0.0381 µM) and the MIC (Neisseria meningitidis gr X, Replicate 3) was 0.016 µg/mL (≈ 0.0381 µM). The MIC (Neisseria meningitidis gr Y, Consensus) was 0.008 µg/mL (≈ 0.019 µM), the MIC (Neisseria meningitidis gr Y, Replicate 1) was 0.016 µg/mL (≈ 0.0381 µM) and the MIC (Neisseria meningitidis gr Y, Replicate 2) was 0.008 µg/mL (≈ 0.019 µM). The MIC (Neisseria meningitidis gr Y, Replicate 3) was 0.008 µg/mL (≈ 0.019 µM), the MIC (Neisseria meningitidis gr Z, Consensus) was 0.016 µg/mL (≈ 0.0381 µM) and the MIC (Neisseria meningitidis gr Z, Replicate 1) was 0.032 µg/mL (≈ 0.0761 µM). The MIC (Neisseria meningitidis gr Z, Replicate 2) was 0.016 µg/mL (≈ 0.0381 µM), the MIC (Neisseria meningitidis gr Z, Replicate 3) was 0.016 µg/mL (≈ 0.0381 µM) and the MIC (Neisseria mucosa 1, Consensus) was 0.25 µg/mL (≈ 0.595 µM). The MIC (Neisseria mucosa 1, Replicate 1) was 0.25 µg/mL (≈ 0.595 µM), the MIC (Neisseria mucosa 1, Replicate 2) was 0.5 µg/mL (≈ 1.19 µM) and the MIC (Neisseria mucosa 1, Replicate 3) was 0.25 µg/mL (≈ 0.595 µM). For the same molecule, the MIC (Neisseria mucosa 2, Replicate 1) was 0.064 µg/mL (≈ 0.152 µM), the MIC (Neisseria mucosa 3, Consensus) was 0.032 µg/mL (≈ 0.0761 µM) and the MIC (Neisseria mucosa 3, Replicate 1) was 0.032 µg/mL (≈ 0.0761 µM). The MIC (Neisseria mucosa 3, Replicate 2) was 0.032 µg/mL (≈ 0.0761 µM), the MIC (Neisseria mucosa 3, Replicate 3) was 0.064 µg/mL (≈ 0.152 µM) and the MIC (Neisseria mucosa 4, Consensus) was 1 µg/mL (≈ 2.38 µM).

Reference: article PMC12446476 (Nature Communications, 2025)
